Consider 24 molecules from patent publication US10457688B2, “Monocyclic thieno, pyrido, and pyrrolo pyrimidine compounds and methods of use and manufacture of same” (Duquesne University of the Holy Spirit, priority 2015, dated 2019).

Molecules are shown by their SMILES. Like-named read-outs stand apart in the source and are kept apart here.

By EC50 is commonly meant the concentration needed to bring the measured effect to its halfway point.

Experiment [1] deals with RT16 CHO cells expressing human FRα. The conditions noted are these: cited from earlier work.
Experiment [2] concerns PC43-10 CHO cells expressing human RFC. The experiment in a line: growth inhibition, CHO PC43-10 (human RFC). Type of experiment: cell-based, Chinese hamster.
Experiment [3] has as its system RT16 CHO cells expressing human FRα. Kind of experiment: growth inhibition, CHO RT16 (FRα). In kind it is cell-based, Chinese hamster.
In experiment [4] the test system is KB human tumor cells (RFC/FRα/PCFT). The experiment in a line: growth inhibition, KB tumor cells. Type of experiment: cell-based. An excerpt: The experiments with the CHO sublines were extended to KB human nasopharengeal carcinoma cells which express highly elevated FRα, along with RFC and PCFT.
Experiment [5] relates to D4 CHO cells expressing FRβ. Kind of experiment: growth inhibition, CHO D4 (FRβ). Type of experiment: cell-based, Chinese hamster.
The subject of experiment [6] is cellular microtubules in A-10 cells. Kind of experiment: cellular microtubule depolymerization, cell-based phenotypic assay. The conditions noted are these: Rattus norvegicus.
The test system of experiment [7] is MDA-MB-435 cancer cells. Kind of experiment: antiproliferative sulforhodamine B assay (SRB assay), MDA-MB-435. Type of experiment: cell-based. As to conditions: Homo sapiens.
Experiment [8] relates to R2/PCFT4 CHO cells expressing human PCFT. The experiment in a line: growth inhibition, CHO R2/PCFT4 (PCFT). Type of experiment: cell-based, Chinese hamster. As to conditions: Section III Table 1.
Experiment [9] deals with R2(VC) CHO cells (transporter-null). Kind of experiment: growth inhibition, vector control R2(VC) CHO cells. Type of experiment: cell-based, Chinese hamster. The conditions noted are these: Cricetulus griseus, Section IV Table 1.
Setting [10] is: Section IV Table 1, +FA, read-out: RT16 (+FA) IC50.
Setting [11] is: Section IV Table 1, read-out: RT16 IC50 (FRα).
The mark [12] stands for this setting: Section IV Table 1, +FA, read-out: KB (+FA) IC50.
The mark [13] stands for this setting: Section IV Table 1, read-out: KB IC50 (RFC/FRα/PCFT).
The mark [14] stands for this setting: A10, read-out: EC50 for Microtubule Depolymerization in A-10 Cells.
[15] abbreviates: A10, read-out: EC50 in A-10 cells (Loss of cellular microtubules).
Where [16] appears, read: A10, read-out: EC50 in A-10 cells (Tubulin polymerization inhibitory activity).
Setting [17] is: MDA-MB-435, read-out: IC50 ± SD (MDA-MB-435) Tumor cells.
The mark [18] stands for this setting: read-out: IC50 ± SD in MDA-435 Cells.
The mark [19] stands for this setting: A10, Section VIII Table 1, read-out: EC50 in A-10 cells (Loss of cellular microtubules).
Setting [20] is: MDA-MB-435, Section VIII Table 1, read-out: IC50 + SD (MDA-MB-435) cancer cells.
The mark [21] stands for this setting: Homo sapiens, PC43-10, Section III Table 1.
The mark [22] stands for this setting: A10, Section VII Table 1, read-out: EC50 for Microtubule Depolymerization in A-10 Cells.
[23] abbreviates: A10, Section VII Table 2, read-out: EC50 in A-10 cells (Tubulin polymerization inhibitory activity).
Setting [24] is: MDA-MB-435, Section VII Table 2, read-out: IC50 ± SD (MDA-MB-435) Tumor cells.
The mark [25] stands for this setting: Section VII Table 1, read-out: IC50 ± SD in MDA-435 Cells.

As to `Nc1nc2[nH]c(CCCc3ccc(C(=O)N[C@@H](CCC(=O)O)C(=O)O)cc3)cc2c(=O)[nH]1` [AGF17], in [1], the “selectivity for FR transport over RFC” value is 25 fold.
Regarding `Nc1nc2[nH]c(CCOc3cccc(C(=O)N[C@@H](CCC(=O)O)C(=O)O)c3)cc2c(=O)[nH]1` [AGF220], the IC50 in [2] (Section IV Table 1) is above 1000 nM; in experiment [3] (setting [10]) it was above 1000 nM; in experiment [3] (setting [11]), 30.3 nM; in experiment [4] (setting [12]), above 1000 nM; in experiment [4] (setting [13]) it was 13.1 nM.
Regarding `Nc1nc2[nH]c(CCNc3cccc(C(=O)N[C@@H](CCC(=O)O)C(=O)O)c3)cc2c(=O)[nH]1` [AGF256], the IC50 was above 1000 nM in experiment [2] (Section IV Table 1); above 1000 nM in experiment [5] (Section IV Table 1, +FA, read-out: D4 (+FA) IC50); 4.19 nM in experiment [5] (Section IV Table 1, read-out: D4 IC50 (FRβ)); above 1000 nM in [3] (setting [10]); 15.9 nM in experiment [3] (setting [11]); above 1000 nM in experiment [4] (setting [12]). The IC50 in experiment [4] (setting [13]) worked out at 14.8 nM.
For the molecule `CSc1ccc(N(C)c2nc(C)nc3cc[nH]c23)cc1` [Compound 4], the IC50 in [5] (Cricetulus griseus, CHO, read-out: D4 IC50 (FRβ)) turned out to be 6.11 nM; in experiment [7] (MDA-MB-435, read-out: IC50 + SD (MDA-MB-435) cancer cells) it was 4 ± 0.5 nM; in [7] (setting [17]) it was 4.4 ± 0.2 nM; in experiment [7] (setting [18]), 4.4 ± 0.2 nM; in [3] (Cricetulus griseus, RT16, read-out: R16 IC50 (FRα)), 1.72 nM; in experiment [4] (Homo sapiens, read-out: KB IC50 (FRα/PCFT/RFC)), 6.13 nM. In addition, the EC50 in [6] (setting [14]) came to 42 nM; in [6] (setting [15]) it was 10 nM; in experiment [6] (setting [16]) it was 42 nM.
Regarding `COc1cccc2cc(N(C)c3nc(C)nc4sccc34)ccc12` [Compound 6], in [6] (setting [19]), the EC50 is 2.5 nM. Also, the IC50 in experiment [7] (setting [20]) is 3.8 nM.
As to `CSc1ccc(N(C)c2ncnc3ccsc23)cc1` [Compound 6], the IC50 in [2] (setting [21]) stood at 207 nM; in [7] (setting [24]), 28.2 ± 5.5 nM; in experiment [7] (setting [25]) it was 28.2 ± 5.5 nM; in experiment [8], 8.23 nM. The EC50 in experiment [6] (setting [22]) and in [6] (setting [23]) was 707 nM each time.
Turning to `COc1ccc(Nc2nc(C)nc3sc(C)c(C)c23)cc1` [Compound 7], the EC50 in [6] (setting [19]) is above 10000 nM.
Turning to `COc1ccc2c(c1)CCCN2c1nc(C)nc2ccsc12` [Compound 7], the half-maximal effective concentration (EC50) in [6] (setting [22]) and in experiment [6] (setting [23]) was 8 nM throughout. Also, the IC50 in experiment [7] (setting [24]) worked out at 3.4 ± 0.9 nM; in [7] (setting [25]), 3.4 ± 0.9 nM; in experiment [4] (Homo sapiens, Section VI Table 1, read-out: KB IC50 (FRα/PCFT/RFC)), 38.9 nM.
In the case of `COc1ccc(N(C)c2nc(C)nc3sc(C)c(C)c23)cc1` [Compound 8], in experiment [6] (setting [19]), the EC50 is 18 nM. Also, the IC50 in experiment [7] (setting [20]) turned out to be 10.7 ± 1 nM.
On to `CSc1ccc2c(c1)CCCN2c1ncnc2ccsc12` [Compound 8], for which the EC50 in experiment [6] (setting [22]) and in [6] (setting [23]) was 22 nM throughout. Also, the IC50 in experiment [7] (setting [24]) and in experiment [7] (setting [25]) was 3.8 ± 0.3 nM throughout.
As to `COc1ccc2c(c1)OCCN2c1nc(C)nc2ccsc12` [Compound 9], the EC50 in [6] (setting [22]) and in experiment [6] (setting [23]) was 237 nM each time. Further, the IC50 in [7] (setting [25]) turned out to be 109 nM.
On to `CSc1ccc(N(C)c2nc(C)nc3sc(C)c(C)c23)cc1` [Compound 9], for which, in [6] (setting [19]), the EC50 amounted to 128 nM. For the same molecule, in experiment [7] (setting [20]), the IC50 worked out at 34.8 ± 3.7 nM.
For `COc1ccc2c(c1)CCCN2c1nc(C)nc2sc(C)c(C)c12` [Compound 10], in experiment [6] (setting [19]), the EC50 is above 10000 nM.
For `COc1cccc2cc(N(C)c3nc(C)nc4ccsc34)ccc12` [Compound 10], the EC50 in [6] (setting [22]) and in experiment [6] (setting [23]) was 3 nM each time. Besides, the IC50 in [7] (setting [24]) and in [7] (setting [25]) was 1.7 ± 0.2 nM throughout.
For the molecule `COc1ccc2c(c1)OCCN2c1nc(C)nc2sc(C)c(C)c12` [Compound 11], the EC50 in [6] (setting [19]) amounted to 1200 nM.
For the molecule `COc1cccc2cc(N(C)c3ncnc4ccsc34)ccc12` [Compound 11], in [6] (setting [22]), the EC50 is 61 nM. The IC50 in experiment [7] (setting [17]) and in experiment [7] (setting [18]) was 15.7 ± 2.2 nM throughout.
On to `CN(Cc1cnc2nc(N)nc(N)c2n1)c1ccc(C(=O)N[C@@H](CCC(=O)O)C(=O)O)cc1` [MTX, methotrexate, reference compound], for which the IC50 in experiment [9] is above 1000 nM.
Regarding `Nc1nc2[nH]cc(CCc3ccc(C(=O)N[C@@H](CCC(=O)O)C(=O)O)cc3)c2c(=O)[nH]1` [PMX, pemetrexed, reference compound], the IC50 in experiment [2] (setting [21]) stood at 30.6 nM; in experiment [4] (Homo sapiens, Section III Table 1, read-out: KB IC50 (RFC/FRα/PCFT)), 9.94 nM.
As to `Cc1nc2ccc(CN(C)c3ccc(C(=O)N[C@@H](CCC(=O)O)C(=O)O)s3)cc2c(=O)[nH]1` [RTX, raltitrexed], the IC50 in experiment [9] was above 1000 nM.
For the molecule `COc1ccc(N(C)c2nc(C)nc3cc[nH]c23)cc1` [compound 1], the IC50 in experiment [7] (setting [24]) worked out at 96.6 ± 5.3 nM; in experiment [7] (setting [25]), 96.6 nM.
As for `COc1ccc(N(C)c2nc(C)nc3ccsc23)cc1` [compound 2], the EC50 in experiment [6] (setting [14]) and in [6] (setting [16]) was 27 nM throughout. Besides, the IC50 in experiment [7] (setting [17]) and in experiment [7] (setting [18]) was 7 ± 2.7 nM in each case.
For `CSc1ccc(Nc2nc(C)nc3sccc23)cc1` [compound 2], the EC50 in experiment [6] (setting [15]) is above 10000 nM.
In the case of `COc1ccc(N(C)c2nc(C)nc3sccc23)cc1` [compound 3], the 50% effective concentration (EC50) in experiment [6] (setting [19]) was found to be 15.4 nM. The IC50 in experiment [7] (setting [20]) was 7.6 nM.
Turning to `CSc1ccc(Nc2nc(C)nc3cc[nH]c23)cc1` [compound 3], the EC50 in experiment [6] (setting [22]) and in experiment [6] (setting [23]) was 25000 nM in each case. Also, the IC50 in experiment [7] (setting [24]) and in [7] (setting [25]) was 2100 ± 70 nM each time.
